Laboratory results taken from PMC10901950, “Neuroprotective and Anti-inflammatory Effects of Rubiscolin-6 Analogs with Proline Surrogates in Position 2” (Neurochemical Research, 2023).
Numbered stars: 1 amine (or outer) side, 2 acyl side, 3 side chain; on linkers, the order of the positions; unused ones are H or OH. Square brackets hold non-standard residues; d marks the D form. Ends that are not written are not given here. Peptide text beside a SMILES is read from it. Nip(3R) = O=C([C@@H]1CCCN([*:1])C1)[*:2]; Dmt = Cc1cc(O)cc(C)c1C[C@H](N)C(=O)O; Inp = O=C(O)C1CCNCC1

How the values were obtained:
SH-SY5Y cells = assay: Neuroprotection in 6-OHDA-treated SH-SY5Y cells (MTT); type: cell-based, human; settings: for neuroprotection after pre-treatment with LY 294002: LY 294002 (PI3-K inhibitor) 20 µM; for neuroprotection after pre-treatment with LY 294002 / neuroprotective effect after pre-treatment with PD 98059: 30 min before peptide and 6-OHDA 100 µM; for neuroprotective effect after pre-treatment with PD 98059: PD 98059 (MEK 1 inhibitor) 50 µM; for peptide neuroprotection with opioid receptor antagonists: β-FNA 10 µM or NLT 10 µM 30 min before peptide (1 and/or 10 µM) and 6-OHDA 100 µM, 24 h
Procedure: The neuroprotective experiments were performed in an in vitro model of a human neuroblastoma cell line (SH-SY5Y) obtained from the German Collection of Microorganisms and Cell Cultures GmbH (DSMZ) Bank (ACC 209). Cells were cultured in Dulbecco’s Modified Eagle’s Medium: Nutrient Mixture F12 (DMEM:F12) supplemented with 1% antibiotic/antimycotic (Amphotericin B, Penicillin and Streptomycin) (Biowest, Nuaillé, France) and 10% (v/v) Fetal Bovine Serum (FBS) (Biowest, Riverside, MO, USA). The anti-inflammatory experiments were performed in an in vitro model of mouse macrophage-like RAW 264.7 cells, purchased from American Type Culture Collection (ATCC, Manassas, VA, USA). Cells were maintained in DMEM medium (Gibco™, Grand Island, NY) and supplemented with 10% bovine calf serum (BCS) (Gibco™, Grand Island, NY) and 1% penicillin–streptomycin (Sigma-Aldrich, St. Louis, MO, USA). Cell cultures were kept at 37 °C in 5% CO2/humidified air.
Cells were incubated with peptides (0.1–10 µM) for 24 h to assess their cytotoxic activity. In the neuroprotective model, SH-SY5Y cells were exposed to 6-OHDA (100 µM) in the absence/presence of peptide at non-toxic concentrations (0.1–10 µM). When needed, a 30 min pre-incubation step with β-funaltrexamine (β-FNA, µ-opioid receptor antagonist, 10 µM), naltrindole (NLT, δ-opioid receptor antagonist, 10 µM), 2’-amino-3’-methoxyflavone (PD 98059, MAPK kinase 1 (MEK 1) inhibitor, 50 µM) or 2-(4-morpholinyl)-8-phenyl-4H-1-benzopyran-4-one (LY 294002, PI3-K inhibitor, 20 µM). Stimulation was terminated by aspiration of the medium and adding 100 µL MTT (1.2 mM) per well. Cells were incubated for 1 h at 37 °C. After this time, MTT was removed, and 100 µL DMSO was added. The resulting absorbance was read in a microplate reader (Biotek, Epoch/2 microplate reader, Winooski, VT, USA) at 570 nm.
Cell metabolic activity (cytotoxicity) was calculated as the percentage of the value obtained for cells incubated with compounds compared to control cells treated with the medium.

Caspase-3 = Caspase-3 activity in 6-OHDA-treated SH-SY5Y cells; type: cell-based, human; settings: 6-OHDA 100 µM, 6 h
Procedure: Caspase-3 activity was assessed using “Caspase-3 fluorometric assay” (Sigma, St. Louis, MO, USA) with minor changes adapted by Silva et al.. The cells were treated with 6-OHDA (100 µM) for 6 h in the presence or absence of peptides. After this period, the culture medium was removed, and cells were rinsed with ice-cold PBS and collected by centrifugation at 3300×g for 5 min. The pellets were resuspended in lysis buffer, incubated for about 20 min on ice and finally centrifuged at 22,500×g, 4 °C, for 20 min. Cell lysates were processed following the manufacturer’s protocol, and fluorescence was read at wavelengths of 360 nm (excitation) and 460 nm (emission). Caspase-3 activity was calculated through the curve slope and presented as Δ fluorescence (a.u.)/mg of protein/min). Staurosporine (STAU, 1 µM) was used as positive control.

[1] = tested on: LPS-stimulated RAW 264.7 cells; assay: Nitric oxide production in LPS-stimulated RAW 264.7 cells (Griess); type: cell-based, mouse; settings: LPS 1 µg/mL, 24 h
Procedure: The level of NO production was determined in RAW 264.7 cells. Briefly, after cells attachment, they were treated with LPS (Millipore Sigma, Darmstadt, Germany) at 1 µg/mL for 24 h, and then the peptides were added for an additional 24 h. After cells’ treatment, the medium was collected, and the accumulation of NO metabolite in the cell culture supernatant was measured using Griess reagent (1% sulfanilamide and 0.1% naphthylethylenediamine dihydrochloride; Sigma Aldrich), where 50 µL of the supernatant was mixed with 50 µL of Griess reagent (40 mg/mL) in a 96-well plate. After incubation at room temperature and darkness for 10 min, the absorbance was measured at 540 nm. Cells treated with LPS without samples were used as the positive control of the inflammatory response.

[2] = tested on: LPS-stimulated RAW 264.7 cells; assay: Lipid peroxidation in LPS-stimulated RAW 264.7 cells (DPPP probe); type: cell-based, mouse; settings: 24 h; for decrease of membrane lipids' oxidation: lowest concentration used (0.1 µM)
Procedure: The level of lipid peroxidation was evaluated after RAW 264.7 cells incubation with peptides for 24 h. Then, the cells were loaded with 50 µM diphenyl-1-pyrenylphosphine (DPPP) probe for 15 min, and fluorescence was read at 360 nm excitation and 460 nm emission wavelengths.

[3] = tested on: Male Swiss albino CD1 mice; assay: Spontaneous locomotor activity after icv injection; type: in vivo, mouse; settings: healthy mice, recording from 10 min after injection, 8-10 mice per group
Procedure: Male Swiss albino CD1 mice (JANVIER LABS, Le Genest-Saint-Isle, France), weighing 20–26 g, were used in the in vivo experiments. The animals were housed in Makrolon cages (L: 40 cm, W: 25 cm, H: 18 cm; 20 mice/cage), with free access to a standard semisynthetic laboratory diet (RM3, SDS, DIETEX-France, Saint-Gratien, France). All animals were kept in a ventilated room, at a temperature of 22 ± 1 °C, under a 12-h light/12-h dark cycle (lights on between 7:00 a.m. and 7:00 p.m.).
Intracerebroventricular (icv) injections (10 µL/mouse) of R-6 and its analogs were performed in the left brain ventricle of manually immobilized mice, with a Hamilton microsyringe ([…], Hamilton, Bonaduz, Switzerland) connected to a needle (length: 3.5 mm, diameter: 0.5 mm), as described elsewhere. Intracerebroventricular injections were performed by an experienced investigator, who frequently controlled the regularity and success of the injections using a methylene blue dye and observed (after sacrifice and frontal brain sectioning) that the injection was successful in more than 95% of trials. It was also verified in several animals, after sacrifice, that the mark of the needle puncture on the parietal bone was located at least 1.5 mm behind the bregma and at least 2.5 mm before the lambda, with laterality between 1 and 2 mm relative to the brain median line. This corresponds to stereotaxic coordinates of the left lateral ventricle in Lehmann’s atlas for mice (Lehmann, 1974): anteriority 2.95e4.15 mm, laterality 0.95e2 mm, and depth 3e4.5 mm. All drugs for icv administration were dissolved in 0.9% NaCl just before treatment. The icv injection method was approved by the Regional Ethical Committee for Animal Experimentation (Normandy; no. N/10-04-04-12).
Tested peptides were dissolved in DMSO and diluted with saline solution to the desired concentrations.
Locomotor activity was assessed automatically in a computerized actimeter (Omnitech Electronics, Inc., Columbus, Ohio, USA) which monitored horizontal displacements and vertical movements. Ten minutes after the icv injection, mice were placed individually in 20 × 20 × 30 cm compartments in a dimly illuminated and quiet room, and then motor activity was recorded. The responses were expressed as the number of crossed beams by the mouse during three consecutive 20 min periods.

[4] = peptide 0.1 µM (lowest concentration)

Row | Compound | neuroprotection after pre-treatment with LY 294002 (SH-SY5Y cells) | neuroprotective effect after pre-treatment with PD 98059 (SH-SY5Y cells) | peptide neuroprotection with opioid receptor antagonists (SH-SY5Y cells) | effect on Caspase-3 activity induced by 6-OHDA (Caspase-3; peptide 10 µM) | effect on LPS-induced NO production [1, 4] | effect on Caspase-3 activity induced by 6-OHDA (Caspase-3; peptides 0.1-10 µM) | decrease of membrane lipids' oxidation [2] [%] | effect on spontaneous (horizontal) locomotor activity [3] | effect on LPS-induced NO production ([1]; peptide 10 µM) | inhibition of peroxidation ([2]; 0.1 µM) | NO level reached (relative to unstimulated control) ([1]; LPS alone exceeded 330%) [%] | effect on lipid peroxidation ([2]; 0.1-10 µM)
1 | Cc1cc(O)cc(C)c1C[C@H](N)C(=O)N1CCC[C@H]1C(=O)N[C@@H](CC(C)C)C(=O)N[C@@H](CC(=O)O)C(=O)N[C@@H](CC(C)C)C(=O)N[C@@H](Cc1ccccc1)C(=O)O [analog 1, Dmt-Pro-Leu-Asp-Leu-Phe-OH] (H-[Dmt]PLDLF-OH) | significantly weakened | didn’t inhibit | did not abolish | showed the potency to suppress | – | – | – | – | – | – | – | –
2 | CC(C)C[C@H](NC(=O)C1CCN(C(=O)[C@@H](N)Cc2ccc(O)cc2)CC1)C(=O)N[C@@H](CC(=O)O)C(=O)N[C@@H](CC(C)C)C(=O)N[C@@H](Cc1ccccc1)C(=O)O [analog 3, Tyr-Inp-Leu-Asp-Leu-Phe-OH] (H-Y[Inp]LDLF-OH) | significantly weakened | didn’t inhibit | did not abolish | – | most effectively reduced | most efficiently | ~10 | do not affect locomotor activity | – | – | – | –
3 | Cc1cc(O)cc(C)c1C[C@H](N)C(=O)N1CCC[C@@H](C(=O)N[C@@H](CC(C)C)C(=O)N[C@@H](CC(=O)O)C(=O)N[C@@H](CC(C)C)C(=O)N[C@@H](Cc2ccccc2)C(=O)O)C1 [analog 4, Dmt-(R)-Nip-Leu-Asp-Leu-Phe-OH] (H-[Dmt][Nip(3R)]LDLF-OH) | – | – | – | – | most effectively reduced | – | – | – | – | – | – | –
4 | Cc1cc(O)cc(C)c1C[C@H](N)C(=O)N1CCC(C(=O)N[C@@H](CC(C)C)C(=O)N[C@@H](CC(=O)O)C(=O)N[C@@H](CC(C)C)C(=O)N[C@@H](Cc2ccccc2)C(=O)O)CC1 [analog 5, Dmt-Inp-Leu-Asp-Leu-Phe-OH] (H-[Dmt][Inp]LDLF-OH) | significantly weakened | didn’t inhibit | some slight µ- and δ-opioid receptor antagonist effect is evident | – | most effectively reduced | active only at the highest dose | ~10 | do not affect locomotor activity | comparable to the level determined in unstimulated cells | most significant inhibition | – | –
5 | CC(C)C[C@H](NC(=O)C1CCN(C(=O)[C@@H](N)Cc2ccc(O)cc2)CC1)C(=O)N[C@@H](CC(=O)O)C(=O)N[C@@H](CC(C)C)C(=O)N[C@@H](Cc1ccccc1)C(N)=O [analog 7, Tyr-Inp-Leu-Asp-Leu-Phe-NH2] (H-Y[Inp]LDLF-NH2) | significantly weakened | didn’t inhibit | did not abolish | – | most effectively reduced | most efficiently | ~10 | do not affect locomotor activity | – | – | ~125 | –
6 | YPLDLF [R-6, rubiscolin-6] | – | – | – | – | – | didn’t decrease | – | do not affect locomotor activity | – | – | – | no effect
